Laboratory results published in US20080249075A1, “C11 Modified Retrosteroids as Progesterone Receptor Modulator Compounds” (Solvay Pharmaceuticals GmbH, priority 2007, published 2008).

How the values were obtained:
[1] = target: T1, human progesterone receptor (Homo sapiens, UniProt P06401); test: Progesterone receptor binding assay, human PR (CEREP); settings: 3H-R5020 as ligand, MCF7 cells as source of PR; read-out: Human PR binding (pKi) (converted)
T1 sequence (P06401 679-933 limits assumed): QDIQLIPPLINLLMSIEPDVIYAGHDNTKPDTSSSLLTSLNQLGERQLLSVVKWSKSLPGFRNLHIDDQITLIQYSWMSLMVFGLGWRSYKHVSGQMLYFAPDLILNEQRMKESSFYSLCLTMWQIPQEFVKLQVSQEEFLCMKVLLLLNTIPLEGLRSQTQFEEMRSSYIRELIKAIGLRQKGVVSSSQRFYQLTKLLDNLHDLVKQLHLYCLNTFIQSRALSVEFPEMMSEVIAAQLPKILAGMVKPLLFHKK
Procedure: The progesterone receptor (PR) binding assays were performed at CEREP (Celle I'Evescault, France).
The binding to the human progesterone receptor (Assay Cat No: Progesterone receptor-814h) was be measured using 3H-R5020 as ligand and MCF7 cells as the source of progesterone receptor. The assay is performed as described by Eckert & Katzenellenbogen [1982]. The binding to the bovine progesterone receptor (Assay Cat No: Progesterone receptor-814) was measured using 3H-R5020 as ligand and uterus tissue as the source of progesterone receptor. The assay was performed as described by Hurd & Moudgil [1988].
The results of the receptor binding assay are presented as the individual pKi values, which were determined by measuring the binding activity to the human or bovine PR, as indicated, for a concentration range of each compound.

[2] = test system: T47D human breast carcinoma cells; test: cells; format: cell-based; settings: Homo sapiens, T47D; for activation at 0.1 µM: 48 h, read-out: PS [100 nM] (% stimulation); for inhibition at 0.1 µM: read-out: PI [100 nM] (% inhibition); for IC50: read-out: pIC50 (converted)
Procedure: The progesterone-dependent modulation of alkaline phosphatase expression was examined using T47D human breast carcinoma cells [Keydar et al., 1979]. The assay was performed as previously described by Di Lorenzo et al. (1991) with the modification of using Dydrogesterone as comparative progestin to determine the antagonistic and agonistic activity.
The cell line was purchased from CLS Cell Lines Service (Hildastrasse 21, D-69214 Eppelheim, Germany). In brief, the cells were plated in 96-well plates at 40,000 cells/well using the following growth medium: RPMI 1640 with: 10% FBS, 1 mM Sodium Pyruvat MEM, 10 mM Hepes, 0.01 mg/ml Bovine insulin, and 25 μg/ml Gentamycin. After 24 h of cultivation, the growth medium was replaced with medium containing 2% fetal bovine serum and the test compounds were added to each well to achieve the appropriate compound concentration: For determination of agonistic activity only the test compounds were added; for measurement of antagonistic activity the test compounds and additionally Dydrogesterone as standard progesterone agonist was added to a final concentration of 1 nM. After 48 h of cultivation, the medium was removed and the cells were washed with 200 μl of Dulbecco's phosphate-buffered saline without calcium and magnesium (PBS(−)). Then the cells were fixed with 3.7% formaldehyde in phosphate-buffered saline for 15 min at 22° C. After washing the cells with PBS, 100 μl of a […] (pNPP) solution (pNPP Liquid Substrate System; Sigma) was added to each well and incubated for 2 h at room temperature protected from light. The reaction was stopped with 100 μl 1N NaOH and the absorbance was measured with a spectrophotometer (Victor, Perkin Elmer) at 405 nm. The results are expressed as alkaline phosphatase induction (as 100% with 1 nM Dydrogesterone) or inhibition (against alkaline phosphatase induction by 1 nM Dydrogesterone) at a certain concentration of test compound.
% stimulation=(effect compound−basal)/(effect dydro 1 nM−basal)*100% inhibition of 1 nM Dydro=100*{1-[(effect compound−basal)/(effect dydro 1 nM−basal)]}
For each compound the % inhibition (PI) and % stimulation (PS), respectively, at a compound concentration of 100 nM was determined. For selected compounds, the corresponding values were measured for several different concentrations, and subsequently were plotted against the concentration of the test compound, and used to calculate the IC50 value (for the antagonistic potency; the IC50 value is the concentration (nM), required to reduce the maximal response by 50%) and EC50 values (for the agonistic potency; the EC50 value is the effective concentration (nM) that produced 50% of the maximum response), respectively.

Q: Which results are given for CC(=O)[C@H]1CC[C@H]2[C@@H]3C=CC4=CC(=O)CC[C@@]4(C)[C@@H]3[C@@H](OC(=O)Nc3ccc4c(c3)OCO4)C[C@]12C [Compound No. 13, Benzo[1,3]dioxol-5-yl-carbamic acid dydrogesterone-11β-yl ester]?
A: Ki [1]: ≥ 631 nM; activation at 0.1 µM [2]: 5%; inhibition at 0.1 µM [2]: 73%; EC50 ([2]; read-out: pEC50 (converted)): 398 nM; IC50 [2]: 31.6 nM

Q: What does the source list for CCO[C@]1(C(C)=O)CC[C@H]2[C@@H]3C=CC4=CC(=O)C5CC5[C@@]4(C)[C@@H]3[C@@H](OC(=O)Nc3cccc(OC)c3)C[C@@]21C (stereo partly shown) [Compound No. 29]?
A: Ki [1]: 398 nM; activation at 0.1 µM [2]: 0%; inhibition at 0.1 µM [2]: 87%; IC50 [2]: 5.01 nM

Q: Which results are given for CC(=O)[C@H]1CC[C@H]2[C@@H]3C=CC4=CC(=O)CC[C@@]4(C)[C@@H]3[C@@H](OC(=O)Nc3ccc4[nH]ccc4c3)C[C@]12C [compound 91, (1H-Indol-5-yl)-carbamic aciddydrogesterone-11-yl ester]?
A: Ki [1]: ≥ 631 nM; activation at 0.1 µM [2]: 1%; inhibition at 0.1 µM [2]: 58%; IC50 [2]: 100 nM
